This is an account of results in patent US20240317721A1, “PYRAZOLYL DERIVATIVES AS INHIBITORS OF THE KRAS MUTANT PROTEIN” (NOVARTIS AG, priority 2021, published 2024).

Usually IC50 stands for the point on the concentration scale where inhibition reaches its midpoint.

In the experiment the target is KRasG12C (M1-K169, biotinylated on the N-terminus) (Homo sapiens (Human), UniProt P01116, G12C). Nature of the experiment: Covalent competition assay: scintillation proximity assay (SPA) quantifying covalent modification of KRASG12C. It counts as binding. Particulars: competition with radiolabeled covalent probe (Compound B/Compound A), 2 hours incubation, 10 nM KRasG12C. The gist of the method: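 Scintillation proximity readout after streptavidin bead capture (30 min) of biotinylated KRasG12C(M1-K169):GDP, 10 nM final, which was covalently labelled over 2 h by 25 nM radio-probe plus 475 nM cold probe unless blocked by compound.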
Background: Scintillation proximity formats need no separation of bound from free tracer.
Turning to `C=CC(=O)N1CC2(CC(n3nc(N4CCN(C(C)=O)CC4)c(-c4c(Cl)ccc5[nH]ncc45)c3C)C2)C1C` (single isomer, unassigned) [Example 197a, 1-(6-(3-(4-acetylpiperazin-1-yl)-4-(5-chloro-1H-indazol-4-yl)-5-methyl-1H-pyrazol-1-yl)-1-methyl-2-azaspiro[3.3]heptan-2-yl)prop-2-en-1-one], the IC50 was > 50000 nM.
For the molecule `C=CC(=O)N1CC2(CC(n3nc(N4CCN(CCO)CC45CCC5)c(-c4c(Cl)c(C)cc5[nH]ncc45)c3C)C2)C1` (single isomer, unassigned) [Example 162a, 1-(6-(4-(5-chloro-6-methyl-1H-indazol-4-yl)-3-(8-(2-hydroxyethyl)-5,8-diazaspiro[3.5]nonan-5-yl)-5-methyl-1H-pyrazol-1-yl)-2-azaspiro[3.3]heptan-2-yl)prop-2-en-1-one], the IC50 was > 5000 nM.
Consider `C=CC(=O)N1CC2(CC(n3nc(N4CCC5(CN(C6COC6)C5)CC4(C)C)c(-c4c(Cl)c(Cl)cc5[nH]ncc45)c3C)C2)C1` (single isomer, unassigned) [Example 92b, 1-(6-(4-(5,6-dichloro-1H-indazol-4-yl)-3-(6,6-dimethyl-2-(oxetan-3-yl)-2,7-diazaspiro[3.5]nonan-7-yl)-5-methyl-1H-pyrazol-1-yl)-2-azaspiro[3.3]heptan-2-yl)prop-2-en-1-one], for which the IC50 was determined as 7 nM.
The result for `C=CC(=O)N1CC2(CC(n3nc(N4CCN(CC(C)(C)O)CC45CCCC5)c(-c4c(Cl)c(C)cc5[nH]ncc45)c3C)C2)C1` (single isomer, unassigned) [Example 165a, 1-(6-(4-(5-chloro-6-methyl-1H-indazol-4-yl)-3-(9-(2-hydroxy-2-methylpropyl)-6,9-diazaspiro[4.5]decan-6-yl)-5-methyl-1H-pyrazol-1-yl)-2-azaspiro[3.3]heptan-2-yl)prop-2-en-1-one] reads > 5000 nM; that for `C=CC(=O)N1CC2(CC(n3nc(N4CCCCC45CN(C(C)=O)C5)c(-c4c(Cl)c(C)cc5[nH]ncc45)c3C)C2)C1` (single isomer, unassigned) [Example 66a, 1-(6-(3-(2-acetyl-2,5-diazaspiro[3.5]nonan-5-yl)-4-(5-chloro-6-methyl-1H-indazol-4-yl)-5-methyl-1H-pyrazol-1-yl)-2-azaspiro[3.3]heptan-2-yl)prop-2-en-1-one], > 50000 nM.
Turning to `C=CC(=O)N1CC2(CC(n3nc(N4CCN(C(C)=O)C[C@@H]4C(C)C)c(-c4c(Cl)c(C)cc5[nH]ncc45)c3C)C2)C1` (single isomer, unassigned) [Example 95a], the IC50 was > 5000 nM.
The same measure for `C=CC(=O)N1CC2(CC(n3nc(N4CCN(CC(C)(C)O)CC45CCC5)c(-c4c(Cl)c(C)cc5[nH]ncc45)c3C)C2)C1` (single isomer, unassigned) [Example 160b, 1-(6-(4-(5-Chloro-6-methyl-1H-indazol-4-yl)-3-(8-(2-hydroxy-2-methylpropyl)-5,8-diazaspiro[3.5]nonan-5-yl)-5-methyl-1H-pyrazol-1-yl)-2-azaspiro[3.3]heptan-2-yl)prop-2-en-1-one]: 27 nM; for `C=CC(=O)N1CC2(CC(n3nc(N4CCC(N5CCOCC5)CC4(C)C)c(-c4c(Cl)c(C)cc5[nH]ncc45)c3C)C2)C1` (single isomer, unassigned) [Example 35a, 1-(6-(4-(5-chloro-6-methyl-1H-indazol-4-yl)-3-(2,2-dimethyl-4-morpholinopiperidin-1-yl)-5-methyl-1H-pyrazol-1-yl)-2-azaspiro[3.3]heptan-2-yl)prop-2-en-1-one]: 254 nM; for `C=CC(=O)N1CC2(CC(n3nc(N4CCn5ccnc5C4)c(-c4c(Cl)c(C)cc5[nH]ncc45)c3C)C2)C1` (single isomer, unassigned) [Example 19b, 1-(6-(4-(5-chloro-6-methyl-1H-indazol-4-yl)-3-(5,6-dihydroimidazo[1,2-a]pyrazin-7(8H)-yl)-5-methyl-1H-pyrazol-1-yl)-2-azaspiro[3.3]heptan-2-yl)prop-2-en-1-one]: 34700 nM.
The result for `C=CC(=O)N1CC2(CC(n3nc(N4CCN(C5CCOCC5)C[C@@]4(C)C(F)F)c(-c4c(Cl)c(C)cc5[nH]ncc45)c3C)C2)C1` (single isomer, unassigned) [Example 146a] reads > 5000 nM.
On to `C=CC(=O)N1CC2(CC(n3nc(N4CCN(C[C@@H]5COCCO5)C[C@]4(C)CC)c(-c4c(Cl)c(C)cc5[nH]ncc45)c3C#N)C2)C1` [Example 176, 3-((S)-4-(((R)-1,4-dioxan-2-yl)methyl)-2-ethyl-2-methylpiperazin-1-yl)-1-(2-acryloyl-2-azaspiro[3.3]heptan-6-yl)-4-(5-chloro-6-methyl-1H-indazol-4-yl)-1H-pyrazole-5-carbonitrile], for which the IC50 was < 5 nM.
The same measure for `C=CC(=O)N1CC2(CC(n3nc(N4CCN(C5CC6(COC6)C5)CC45CCC5)c(-c4c(Cl)c(C)cc5[nH]ncc45)c3C)C2)C1` (single isomer, unassigned) [Example 135b, 1-(6-(3-(8-(2-oxaspiro[3.3]heptan-6-yl)-5,8-diazaspiro[3.5]nonan-5-yl)-4-(5-chloro-6-methyl-1H-indazol-4-yl)-5-methyl-1H-pyrazol-1-yl)-2-azaspiro[3.3]heptan-2-yl)prop-2-en-1-one]: 14 nM; for `C=CC(=O)N1CC2(CC(n3nc(N4CCC(O)(CN5CCOCC5)CC4(C)C)c(-c4c(Cl)c(Cl)cc5[nH]ncc45)c3C)C2)C1` (single isomer, unassigned) [Example 237b, 1-(6-(4-(5,6-dichloro-1H-indazol-4-yl)-3-(4-hydroxy-2,2-dimethyl-4-(morpholinomethyl)piperidin-1-yl)-5-methyl-1H-pyrazol-1-yl)-2-azaspiro[3.3]heptan-2-yl)prop-2-en-1-one]: 31 nM; for `C=CC(=O)N1CC2(CC(n3nc(N4CCN(C5CCCOC5)C[C@]4(C)CC)c(-c4c(Cl)c(C)cc5[nH]ncc45)c3C)C2)C1` (single isomer, unassigned) [Example 157c]: 6 nM.
The same measure for `C=CC(=O)N1CC2(CC(n3nc(N4CC(c5cccnc5)C4)c(-c4c(Cl)c(C)cc5[nH]ncc45)c3C)C2)C1` (single isomer, unassigned) [Example 37a, 1-(6-(4-(5-chloro-6-methyl-1H-indazol-4-yl)-5-methyl-3-(3-(pyridin-3-yl)azetidin-1-yl)-1H-pyrazol-1-yl)-2-azaspiro[3.3]heptan-2-yl)prop-2-en-1-one]: > 50000 nM.
The same measure for `CC[C@@]1(C)CN(C[C@@H]2COCCO2)CCN1c1nn(C2CC3(C2)CN(C(=O)/C=C/COC)C3)c(C)c1-c1c(Cl)c(C)cc2[nH]ncc12` (single isomer, unassigned) [Example 120b]: 140 nM.
Turning to `C=CC(=O)N1CC2(CC(n3nc(N4CCN(C(C)=O)C[C@@H]4CC)c(-c4c(Cl)c(C)cc5[nH]ncc45)c3C)C2)C1` (single isomer, unassigned) [Example 94b], the IC50 is 64 nM.
The same measure for `C=CC(=O)N1CC2(CC(n3nc(N4CCN(C5CCOCC5)CC45CCC5)c(-c4c(Cl)c(Cl)cc5[nH]ncc45)c3C)C2)C1` (single isomer, unassigned) [Example 145a, 1-(6-(4-(5,6-dichloro-1H-indazol-4-yl)-5-methyl-3-(8-(tetrahydro-2H-pyran-4-yl)-5,8-diazaspiro[3.5]nonan-5-yl)-1H-pyrazol-1-yl)-2-azaspiro[3.3]heptan-2-yl)prop-2-en-1-one]: 4300 nM; for `C=CC(=O)N1CC2(CC(n3nc(N4CCN(C5COC5)CC45CCC5)c(-c4c(C)c(Cl)cc5[nH]ncc45)c3C)C2)C1` (single isomer, unassigned) [Example 79b, 1-(6-(4-(6-chloro-5-methyl-1H-indazol-4-yl)-5-methyl-3-(8-(oxetan-3-yl)-5,8-diazaspiro[3.5]nonan-5-yl)-1H-pyrazol-1-yl)-2-azaspiro[3.3]heptan-2-yl)prop-2-en-1-one]: 18 nM; for `C=CC(=O)N1C[C@]2(C[C@H](n3nc(N4CCN(C[C@@H]5COCCO5)C[C@]4(C)CC)c(-c4c(Cl)c(C)cc5[nH]ncc45)c3C)C2)[C@H]1C` (single isomer, unassigned) [Example 200a]: > 5000 nM.
The same measure for `C=CC(=O)N1CC2(CC(n3nc(N4CCC(N5C[C@H](OC)[C@H](OC)C5)CC4(C)C)c(-c4c(Cl)c(C)cc5[nH]ncc45)c3C)C2)C1` (single isomer, unassigned) [Example 102b]: 23 nM.
As for `C=CC(=O)N1CC2(CC(n3nc(N4CC[C@@H](CN5CCN6CCOC[C@@H]6C5)CC4(C)C)c(-c4c(Cl)c(Cl)cc5[nH]ncc45)c3C)C2)C1` (single isomer, unassigned) [Example 279b], the IC50 is 6 nM.
Turning to `C=CC(=O)N1CC2(CC(n3nc(N4[C@@H](C)CN(C(C)=O)C[C@@H]4C)c(-c4c(Cl)c(C)cc5[nH]ncc45)c3C)C2)C1` (single isomer, unassigned) [Example 56a], the IC50 is > 50000 nM.
With `C=CC(=O)N1CC2(CC(n3nc(N4C[C@H](C)N(C5COC5)CC4(C)C)c(-c4c(Cl)c(Cl)cc5[nH]ncc45)c3C)C2)C1` (single isomer, unassigned) [Example 104a], the IC50 was 4440 nM.
On to `C=CC(=O)N1CC2(CC(n3nc(N4CCN(C[C@H]5CCCO5)CC45CCC5)c(-c4c(Cl)c(C)cc5[nH]ncc45)c3C)C2)C1` (single isomer, unassigned) [Example 153a], for which the IC50 is > 5000 nM.
The same measure for `C=CC(=O)N1CC2(CC(n3nc(N4CCN(C5COC5)C[C@@]4(C)COC)c(-c4c(Cl)c(C)cc5[nH]ncc45)c3C)C2)C1` (single isomer, unassigned) [Example 148b]: 295 nM; for `C=CC(=O)N1CC2(CC(n3nc(N4CCn5nccc5C4)c(-c4c(Cl)c(C)cc5[nH]ncc45)c3C)C2)C1` (single isomer, unassigned) [Example 10a, 1-(6-(4-(5-Chloro-6-methyl-1H-indazol-4-yl)-3-(6,7-dihydropyrazolo[1,5-a]pyrazin-5(4H)-yl)-5-methyl-1H-pyrazol-1-yl)-2-azaspiro[3.3]heptan-2-yl)prop-2-en-1-one]: 50000 nM.
